Measurements as given in US4138482A, “3-Cyano-N-(N,N-dimethylaminopropyl)-iminodibenzyl and salts thereof” (Hoffmann-La Roche Inc., priority 1976, dated 1979).
Structures can show the parent of a compound that is named as a salt.

Experiments:
[1] = test system: neuronal serotonin uptake; assay: Antidepressive activity / inhibition of the neuronal serotonin uptake in animal experiments; format: in vivo
From the text: The compound of formula I and its pharmaceutically acceptable acid addition salts, are therefore useful, for example, for the treatment of depressions of endogenous or exogenous origin. More specifically, they are useful as antidepressants.

Solubility = format: physicochemical; details: free base
[2] = Anticholinergic side-effects; details: for example mouth dryness, constipation, tachycardia and/or accommodation disorders
[3] = test system: serotonin uptake in blood platelets of the rat; assay: Inhibition of the serotonin uptake in vitro (blood platelets); format: cell-based
Protocol: 4. Inhibition of the serotonin uptake in vitro
0.5 Ml. of blood plasma was treated with different concentrations of test substance in 50 μl of physiological sodium chloride solution. After incubating at 37° C. for 5 minutes, serotonin (C^14; 0.1 μM) was added and the mixture was incubated at 37° C. for an additional 5 minutes. The serotonin concentration was determined by means of a C^14 measuring apparatus. A control experiment in which no test substance is used was also carried out.

[4] = test system: serotonin re-uptake ("membrane pump"); assay: Inhibition of the serotonin re-uptake in vivo (action of the "membrane pump"); design: species or system rat; details: for ED50: Rattus norvegicus, "membrane pump", Biochem. Pharmacol. 20, 707, 1971
[5] = test system: serotonin uptake in the synaptosomes of the forebrain of rats; assay: Inhibition of the serotonin uptake ex vivo; format: in vivo, rat; details: for ED50: Rattus norvegicus, ip, injected intraperitoneally, serotonin uptake measured after 1 hour, rats
Protocol: (§1) The uptake of serotonin in the synaptosomes of the forebrain of rats was tested according to J. Pharmacol. exp.
2. Inhibition of the serotonin uptake ex vivo
An analogous experimental procedure to that given under 1 was utilized. The test substances were, however, injected intraperitoneally; the serotonin uptake was measured after 1 hour. Untreated rats were used as the controls.

[6] = test system: serotonin uptake in the synaptosomes of the forebrain of rats; assay: Inhibition of the serotonin uptake in vitro (synaptosomes of the forebrain of rats); format: biochemical, rat; details: for IC50: synaptosomes of the forebrain of rats, read-out: ED50 (inhibition of 50%) of serotonin uptake in vitro
Protocol: 1. Inhibition of the serotonin uptake in vitro
as §1

[7] = test system: serotonin uptake in blood platelets of the rat; assay: Inhibition of the serotonin uptake in vivo (blood platelets); details: ip; for inhibition at 5 mg/kg: Rattus norvegicus, Platelet, 5.0 mg/kg intraperitoneally twice daily over 4 days, 12 hours after last administration, read-out: Inhibition in % of the control; for Serotonin in mmol/mg. of protein: 5 mg/kg
Protocol: 5. Inhibition of the serotonin uptake in vivo
Rats were given twice daily over a period of 4 days an intraperitoneal injection of 5.0 mg. of test substance per kg. and 12 hours after the last administration the rats were killed. Serotonin was determined spectrofluorimetrically as described in J. Pharmacol. exp.

CN(C)CCCN1c2ccccc2CCc2ccc(C#N)cc21 [3-cyano-N-(N,N-dimethylaminopropyl)-iminodibenzyl]
antidepressive activity [1]: strong antidepressive activity | inhibition of the neuronal serotonin uptake [1]: extraordinarily strong inhibition of the neuronal serotonin uptake | solubility in organic solvents (Solubility; dimethylsulfoxide, dimethylformamide, chlorinated hydrocarbons (chloroform, methylene chloride), alkanols (methanol, ethanol), ether and benzene): relatively good solubility | solubility in water (Solubility; water): soluble in water with relative difficulty | anticholinergic side-effects [2]: confined to a minimum

CN(C)CCCN1c2ccccc2CCc2ccc(C#N)cc21 [Substance A, 3-Cyano-N-(N,N-dimethylaminopropyl)-iminodibenzyl hydrochloride]
times greater activity than substance B ([3]; versus known substance B): 130 times | times greater activity than substance C ([3]; versus known substance C): 20 times | ED50 [4]: 0.7 mg/kg | as active as substance B in times smaller doses ([4]; versus known substance B, in vivo re-uptake): 18 times | as active as substance C in times smaller doses ([4]; versus known substance C, in vivo re-uptake): 9 times | ED50 [5]: 0.9 mg/kg | as active as substance B in times smaller doses ([5]; versus known substance B, ex vivo): 21 times | as active as substance C in times smaller doses ([5]; versus known substance C, ex vivo): 2.4 times | IC50 [6]: 0.0015 µM | times greater activity than substance B ([6]; versus known substance B, synaptosomes): 52 times | times greater activity than substance C ([6]; versus known substance C, synaptosomes): 4.2 times | inhibition at 5 mg/kg [7]: 61% | Serotonin in mmol/mg. of protein [7]: 4.09 ± 1.30 mmol/mg. of protein

CN(C)CCCN1c2ccccc2CCc2ccccc21 [Substance B, N-(N,N-Dimethylaminopropyl)-iminodibenzyl hydrochloride, reference compound]
ED50 [4]: 12.8 mg/kg | ED50 [5]: 19 mg/kg | IC50 [6]: 0.078 µM | inhibition at 5 mg/kg [7]: 14% | Serotonin in mmol/mg. of protein [7]: 9.72 ± 2.12 mmol/mg. of protein
